Test system: MAGI-CCR5/HeLa-R5-16 cell fusion, beta-gal luminescence
Test: inhibitors of CCR5-tropic HIV-1 Env cell-cell fusion, dose response, MAGI-CCR5 and HeLa-R5-16 cells, 2% serum, set 2 (AID 504551)

Which IC50 does the source give for `Cc1c2c(=O)n(-c3nc4ccccc4s3)nc-2cc(O)n1Cc1ccccc1` here?
Its IC50 is 3.94 µM.

With `Cc1c2c(=O)n(-c3nc4ccccc4s3)nc-2cc(O)n1C1CC1` as the compound, how does the IC50 read?
Its IC50 is 3.75 µM.

For `Cc1c2c(=O)n(-c3nc4ccccc4s3)nc-2cc(O)n1CCc1ccc(O)cc1`, which IC50 is on record?
The IC50 was 3.36 µM.

With `COc1ccc(CCn2c(O)cc3nn(-c4nc5ccccc5s4)c(=O)c-3c2C)cc1` as the compound, how does the IC50 read?
Its IC50 is 3.49 µM.

Which IC50 does the source give for `Cc1c2c(=O)n(-c3nc4ccccc4s3)nc-2cc(O)n1Cc1ccc(F)cc1` here?
Its IC50 is 3.42 µM.

Which IC50 does the source give for `Cc1c2c(=O)n(-c3nc4ccccc4s3)nc-2cc(O)n1Cc1ccccc1Cl` here?
The IC50 was 3.4 µM.

For `COc1ccc(Cn2c(O)cc3nn(-c4nc5ccccc5s4)c(=O)c-3c2C)cc1`, which IC50 is on record?
Its IC50 is 3.57 µM.

With `Cc1c2c(=O)n(-c3nc4ccccc4s3)nc-2cc(O)n1CCC(C)C` as the compound, how does the IC50 read?
Its IC50 is 3.25 µM.

`Cc1c2c(=O)n(-c3nc4ccccc4s3)nc-2cc(O)n1Cc1cccs1` was tested. Which IC50 did it give?
The IC50 was 3.5 µM.

How did the IC50 turn out when `COc1ccccc1Cn1c(O)cc2nn(-c3nc4ccccc4s3)c(=O)c-2c1C` was run?
The IC50 was 3.73 µM.

`Cc1c2c(=O)n(-c3nc4ccccc4s3)nc-2cc(O)n1CCc1cccs1` was tested. Which IC50 did it give?
Its IC50 is 3.7 µM.

For `Cc1c2c(=O)n(-c3nc4ccccc4s3)nc-2cc(O)n1Cc1cccnc1`, which IC50 is on record?
Its IC50 is 3.64 µM.

`Cc1c2c(=O)n(-c3nc4ccccc4s3)nc-2cc(O)n1Cc1ccncc1` was tested. Which IC50 did it give?
The IC50 was 3.94 µM.

From PubChem BioAssay AID504551 (Southern Research Specialized Biocontainment Screening …, 2011)
